# Laboratory results reported in patent US20250057860A1, “READY-TO-DILUTE FORMULATION” (priority 2021, published 2025).
# Assays:
# [1] = Initial screening: effect of excipients on remdesivir solubility; type: physicochemical
# [2] = Solubility of remdesivir in water in the presence of surfactants; type: physicochemical
# Description: The effect of various surfactants on the solubility of remdesivir in water was also tested.
# [3] = cited from earlier work
substance,measurement,setting,value
remdesivir,Solubility,[1]; in Benzyl Alcohol,≥56 mg/mL
same,Solubility,[1]; in Ethanol,≥21 mg/mL
same,Solubility,[1]; in N-methyl pyrrolidone,> 100 mg/mL
same,Solubility,[1]; in N-methyl-2-pyrrolidone (NMP),≥112 mg/mL
same,Solubility,[1]; in NMP + Ethanol,≥226 mg/mL
same,Solubility,[1]; in PEG 300,≥39 mg/mL
same,Solubility,[1]; in PEG 400,≥16 mg/mL
same,Solubility,[1]; in PEG 400 + Glycerol (3:5),0.011 mg/mL
same,Solubility,[1]; in PEG 400 + Glycerol (3:10),0.0008 mg/mL
same,Solubility,[1]; in PEG 600,≥6.2 mg/mL
same,Solubility,[1]; in PEG 1000,≥6.3 mg/mL
same,Solubility,[1]; in Peppermint Oil,15.9 mg/mL
same,Solubility,[1]; in Plasdone (PVP) + PEG 300,≥66 mg/mL
same,Solubility,[1]; in Propylene Glycol,≥29 mg/mL
same,Solubility,[1]; in Soluplus + Ethanol + Water,≥34 mg/mL
same,Solubility,[1]; in Span 20,0.006 mg/mL
same,Solubility,[1]; in Span 80,0.3 mg/mL
same,Solubility,[1]; in low molecular weight polyethylene glycols (PEG 300 and 400) in the presence of low molecular weight PVP,over 50 mg/ml
same,Remdesivir Solubility,[2]; water with Kolliphor EL (Polyoxyl 35 Castor Oil; Cremophor) 0.10 % w/w,0.020 mg/mL
same,Remdesivir Solubility,[2]; water with Poloxamer P407 0.07 % w/w,0.006 mg/mL
same,Remdesivir Solubility,[2]; water with TWEEN 20 (Polysorbate 20) 0.16 % w/w,0.016 mg/mL
same,Remdesivir Solubility,[2]; water with TWEEN 80 (Polysorbate 80) 0.30 % w/w,0.033 mg/mL
same,solubility in water (in words),[3],insoluble
